# Laboratory results: ChEMBL document CHEMBL1147222, “Lowdenic acid: a new antifungal polyketide-derived metabolite from a new fungicolous Verticillium sp” (2003)
# How the values were obtained:
# Assay type in all cases: functional
# Aspergillus flavus [1] = experiment: Antifungal activity against Aspergillus flavus NRRL 6541 at 250 ug/disk; conditions: read-out: IZ
# Aspergillus flavus [2] = experiment: Antifungal activity against Aspergillus flavus NRRL 6541
# Candida albicans = experiment: Antifungal activity against Candida albicans ATCC 90029 at 200 ug/disk by standard disk assay; conditions: read-out: IZ
# Staphylococcus aureus = experiment: Antibacterial activity against Staphylococcus aureus ATCC 29213 at 200 ug/disk by standard disk assay; conditions: read-out: IZ
# Bacillus subtilis = experiment: Antibacterial activity against Bacillus subtilis ATCC 6051 at 200 ug/disk by standard disk assay; conditions: read-out: IZ
smiles,measurement,setting,value
CCCCCCCCCC[C@@H](C)CCC[C@@]1(C)C=C/C(=C2/C(=O)O[C@H](CC(=O)O)C2=O)O1 [LOWDENIC ACID],zone of inhibition at 250 µg/disc,Aspergillus flavus [1],14 mm
same,MIC,Aspergillus flavus [2],6 µg/mL
same,zone of inhibition at 200 µg/disc,Candida albicans,9 mm
same,zone of inhibition at 200 µg/disc,Staphylococcus aureus,12 mm
same,zone of inhibition at 200 µg/disc,Bacillus subtilis,17 mm
